# Measured values: publication PMC2766259 (Synapse (New York, N.Y.), 2009)
# Read-outs that look alike come from different tables or passages of the source.
# What was measured:
# [1] = test system: α4β2* nAChRs; conditions: cited from earlier work
# [2] = test system: α4β2* nAChRs; conditions: cited from earlier work; remark: listed apart in the source
# [3] = test system: α4β2* nAChRs; conditions: cited from earlier work; remark: listed apart in the source
# [4] = test system: α4β2* nAChRs; conditions: pigs, CI; ref Brust et al., 2008; cited from earlier work
# [5] = 5-[^123I]IA SPECT of the living human brain, VOI kinetic analysis; format: in vivo, Humans (Homo sapiens); conditions: human, intravenous
# [6] = biological target: high-affinity α4β2* neuronal nicotinic acetylcholine receptors (nAChRs) (Homo sapiens, UniProt P17787+P43681); test: as above; format: in vivo, Humans (Homo sapiens)
# [7] = Plasma metabolite analysis by column-switch HPLC after intravenous 5-[^123I]IA; format: in vivo, Humans (Homo sapiens); conditions: drawn simultaneously 30 minutes or later after administration
# [8] = Safety and tolerability monitoring after intravenous 5-[^123I]IA; format: in vivo, Humans (Homo sapiens)
# [9] = test system: α4β2* nAChRs; conditions: in rats; ref Saji et al., 2002; cited from earlier work
# [10] = test system: α4β2* nAChRs; conditions: in rats; ref Saji et al., 2002; cited from earlier work; remark: listed apart in the source
# [11] = test system: α4β2* nAChRs; conditions: ref Saji et al., 2002; cited from earlier work
# [12] = test system: α4β2* nAChRs; conditions: acute treatment, baboon, ref Kassiou et al., 2001, cited from earlier work
# [13] = test system: α4β2* nAChRs; conditions: human smokers, 2-[^18F]FA; ref Brody et al., 2006; cited from earlier work
# Chain of high-affinity α4β2* neuronal nicotinic acetylcholine receptors (nAChRs) (P43681 29-627 limits assumed): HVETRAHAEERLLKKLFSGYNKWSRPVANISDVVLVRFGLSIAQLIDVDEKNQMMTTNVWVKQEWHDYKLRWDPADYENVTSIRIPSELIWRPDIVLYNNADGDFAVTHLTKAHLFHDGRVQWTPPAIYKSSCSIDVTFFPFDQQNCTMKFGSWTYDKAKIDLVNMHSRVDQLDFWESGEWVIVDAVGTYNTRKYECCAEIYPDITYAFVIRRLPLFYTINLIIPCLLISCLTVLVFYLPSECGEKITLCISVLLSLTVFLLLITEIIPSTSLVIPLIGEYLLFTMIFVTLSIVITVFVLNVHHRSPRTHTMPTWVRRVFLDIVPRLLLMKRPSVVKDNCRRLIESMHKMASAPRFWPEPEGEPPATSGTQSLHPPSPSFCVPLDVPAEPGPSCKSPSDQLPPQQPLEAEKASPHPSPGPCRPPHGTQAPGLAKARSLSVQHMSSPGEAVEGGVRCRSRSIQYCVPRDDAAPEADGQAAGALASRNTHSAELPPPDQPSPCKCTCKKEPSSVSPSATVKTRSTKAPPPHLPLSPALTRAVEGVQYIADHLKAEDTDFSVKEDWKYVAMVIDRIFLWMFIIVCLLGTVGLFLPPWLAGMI
# Chain of high-affinity α4β2* neuronal nicotinic acetylcholine receptors (nAChRs) (P17787 26-502): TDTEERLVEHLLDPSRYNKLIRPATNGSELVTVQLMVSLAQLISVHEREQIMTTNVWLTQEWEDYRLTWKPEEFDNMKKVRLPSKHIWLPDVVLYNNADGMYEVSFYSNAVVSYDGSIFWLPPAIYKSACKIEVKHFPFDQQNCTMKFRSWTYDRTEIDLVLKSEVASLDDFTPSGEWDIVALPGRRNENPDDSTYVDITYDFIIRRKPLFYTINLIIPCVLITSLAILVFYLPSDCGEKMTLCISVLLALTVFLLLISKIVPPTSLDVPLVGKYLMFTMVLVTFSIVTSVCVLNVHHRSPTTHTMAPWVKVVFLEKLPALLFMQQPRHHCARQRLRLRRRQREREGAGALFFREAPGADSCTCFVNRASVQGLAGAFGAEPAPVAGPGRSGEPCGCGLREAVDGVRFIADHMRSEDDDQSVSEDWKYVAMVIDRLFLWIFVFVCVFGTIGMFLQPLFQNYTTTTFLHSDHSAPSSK
smiles,measurement,setting,value
"[76Br]c1ccc(C2CC3CCC2N3)cn1 (stereo not drawn) [[^76Br]BrPH, [^76Br]norchlorobromoepibatidine, reference compound]",Conclusion: safety and efficacy,"[1]; ref Kassiou et al., 2002",[^76Br]BrPH is safe and efficacious in baboons.
"[18F]c1ccc(OC[C@@H]2CCN2)cn1 [6-[^18F]FA, 6-[^18F]fluoro-3-(2(S)-azetidinylmethoxy)pyridine]",Conclusion: safety and efficacy,"[2]; ref Horti et al., 2000",• 6-[^18F]FA is safe and efficacious for brain imaging in monkeys.
"[11CH3]N1CCC[C@H]1c1cccnc1 [[^11C](S)-(−)-nicotine, reference compound]",non-specific binding,"[3]; human nAChR imaging, ref Scheffel et al., 2000, Villemagne et al., 1998",high degree of non-specific binding
"[18F]c1ncccc1OC[C@@H]1CCN1 [2-[^18F]FA, 2-[^18F]fluoro-3-(2(S)-azetidinylmethoxy)pyridine, reference compound]",Conclusion: safety and efficacy,"[2]; 2 monkeys, ref Kimes et al., 2003",• 2-[^18F]FA is safe and efficacious in monkeys and humans.
same,Conclusion: peaks,"[2]; a monkey, ref Dollé et al., 1999",• In baboons 2-[^18F]FA has lower peaks than [^18F]fluoronorchloroepibatidine. In a monkey 2-[^18F]FA has lower peaks than 5-[^123I]IA.
same,Conclusion: safety and efficacy,"[2]; ref Chefer et al., 1999",• 2-[^18F]FA is safe and efficacious for brain imaging in monkeys.
same,Conclusion: peaks,[1]; in vivo,• In baboons 2-[^18F]FA has lower peaks than [^18F]fluoronorchloroepibatidine. In a monkey 2-[^18F]FA has lower peaks than 5-[^123I]IA.
"[18F]c1ccc([C@@H]2C[C@H]3CCC[C@@H]2N3)cn1 [(−)-[^18F]NCFHEB, [^18F]norchloro-fluoro-homoepibatidine]",Conclusion: attainment of equilibrium,[4],• (−)-[^18F]NCFHEB attains equilibrium before 2-[^18F]FA
"[123I]c1cncc(OC[C@@H]2CCN2)c1 [5-[^123I]IA, (S)-5-[^123I]iodo-3-(2-azetidinylmethoxy)pyridine]",Kp,"[5]; brain (cortex), 8.1 mCi, Distribution volume (DV), Cortex, subject 1, bolus",12.8
same,Kp,"[5]; brain (cortex), 8.8 mCi, Distribution volume (DV), Cortex, subject 4, bolus",7.62
same,Kp,"[5]; brain (cortex), 9.3 mCi, Distribution volume (DV), Cortex, subject 3, bolus",13
same,Kp,"[5]; brain (frontal lobe), 8.1 mCi, Distribution volume (DV), Frontal lobe, subject 1, bolus",9.6
same,Kp,"[5]; brain (frontal lobe), 8.8 mCi, Distribution volume (DV), Frontal lobe, subject 4, bolus",5.46
same,Kp,"[5]; brain (frontal lobe), 9.3 mCi, Distribution volume (DV), Frontal lobe, subject 3, bolus",8.56
same,Kp,"[5]; brain (fusiform gyrus), 8.1 mCi, Distribution volume (DV), Fusiform gyrus, subject 1, bolus",9.34
same,Kp,"[5]; brain (fusiform gyrus), 8.8 mCi, Distribution volume (DV), Fusiform gyrus, subject 4, bolus",5.68
same,Kp,"[5]; brain (fusiform gyrus), 9.3 mCi, Distribution volume (DV), Fusiform gyrus, subject 3, bolus",9.58
same,Kp,"[5]; brain (hippocampus), 8.1 mCi, Distribution volume (DV), Hippocampus, subject 1, bolus",13.5
same,Kp,"[5]; caudate head, Median DV of high plasma nicotine group, Caudate head, six volunteers",13.7
same,Kp,"[5]; caudate head, Median DV of low plasma nicotine group, Caudate head, six volunteers",21.9
same,Kp,"[5]; cerebellum, 8.1 mCi, Distribution volume (DV), subject 1, bolus",8.71
same,Kp,"[5]; cerebellum, 8.8 mCi, Distribution volume (DV), subject 4, bolus",5.4
same,Kp,"[5]; cerebellum, 9.3 mCi, Distribution volume (DV), subject 3, bolus",9.88
same,Kp,"[5]; cingulate cortex, Median DV of high plasma nicotine group, Cingulate cortex, six volunteers",12.6
same,Kp,"[5]; cingulate cortex, Median DV of low plasma nicotine group, Cingulate cortex, six volunteers",21.4
same,Kp,"[5]; cingulate gyrus, 8.1 mCi, Distribution volume (DV), subject 1, bolus",12.6
same,Kp,"[5]; cingulate gyrus, 8.8 mCi, Distribution volume (DV), subject 4, bolus",7.55
same,Kp,"[5]; cingulate gyrus, 9.3 mCi, Distribution volume (DV), subject 3, bolus",12.4
same,Kp,"[5]; frontal cortex, Median DV of high plasma nicotine group, Frontal cortex, six volunteers",9.6
same,Kp,"[5]; frontal cortex, Median DV of low plasma nicotine group, Frontal cortex, six volunteers",18
same,Kp,"[5]; fusiform gyrus, Median DV of high plasma nicotine group, Fusiform gyrus, six volunteers",9.46
same,Kp,"[5]; fusiform gyrus, Median DV of low plasma nicotine group, Fusiform gyrus, six volunteers",19.9
same,Kp,"[5]; head of the caudate nucleus, 8.1 mCi, Distribution volume (DV), Caudate head, subject 1, bolus",13.7
same,Kp,"[5]; head of the caudate nucleus, 8.8 mCi, Distribution volume (DV), Caudate head, subject 4, bolus",7.75
same,Kp,"[5]; head of the caudate nucleus, 9.3 mCi, Distribution volume (DV), Caudate head, subject 3, bolus",13.1
same,Kp,"[5]; hippocampus, 8.8 mCi, Distribution volume (DV), subject 4, bolus",8.32
same,Kp,"[5]; hippocampus, 9.3 mCi, Distribution volume (DV), subject 3, bolus",14.4
same,Kp,"[5]; occipital cortex, Median DV of high plasma nicotine group, Occiptal cortex, six volunteers",7.15
same,Kp,"[5]; occipital cortex, Median DV of low plasma nicotine group, Occiptal cortex, six volunteers",14.2
same,Kp,"[5]; occipital lobe, 8.1 mCi, Distribution volume (DV), Occiptal lobe, subject 1, bolus",7
same,Kp,"[5]; occipital lobe, 8.8 mCi, Distribution volume (DV), Occiptal lobe, subject 4, bolus",4.17
same,Kp,"[5]; occipital lobe, 9.3 mCi, Distribution volume (DV), Occiptal lobe, subject 3, bolus",7.15
same,Kp,"[5]; parietal cortex, Median DV of high plasma nicotine group, Parietal cortex, six volunteers",9.78
same,Kp,"[5]; parietal cortex, Median DV of low plasma nicotine group, Parietal cortex, six volunteers",17
same,Kp,"[5]; parietal lobe, 8.1 mCi, Distribution volume (DV), subject 1, bolus",9.78
same,Kp,"[5]; parietal lobe, 8.8 mCi, Distribution volume (DV), subject 4, bolus",5.17
same,Kp,"[5]; parietal lobe, 9.3 mCi, Distribution volume (DV), subject 3, bolus",8.71
same,Kp,"[5]; pons, 8.1 mCi, Distribution volume (DV), subject 1, bolus",15.1
same,Kp,"[5]; pons, 8.8 mCi, Distribution volume (DV), subject 4, bolus",9.23
same,Kp,"[5]; pons, 9.3 mCi, Distribution volume (DV), subject 3, bolus",20.4
same,Kp,"[5]; putamen, 8.8 mCi, Distribution volume (DV), subject 4, bolus",8.74
same,Kp,"[5]; putamen, 9.3 mCi, Distribution volume (DV), subject 3, bolus",15.6
same,Kp,"[5]; temporal cortex, Median DV of high plasma nicotine group, Temporal cortex, six volunteers",8.39
same,Kp,"[5]; temporal cortex, Median DV of low plasma nicotine group, Temporal cortex, six volunteers",15
same,time of maximal cerebellar uptake,[6]; after injection,40 min
same,time of peak thalamic uptake,[6]; after injection,approximately 140 minutes
same,brain uptake,[6]; living human brain,good brain uptake
same,reversibility of binding,[6]; time activity curves,reversible binding with substantial dissociation by 6 h
same,"extent of metabolism, arterial versus venous blood samples",[7],identical extents of metabolism
same,vital signs and electrocardiograms,[8]; before administration and subsequent 24 hours,normal
same,"abnormalities of behavior or movement (AIMS, BPRS)",[8]; before or after administration,no abnormalities of behavior or movement
same,"Electrocardiogram, blood pressure, and pulse","[8]; during each study, twelve healthy adults",did not change
same,Conclusion: safety and efficacy,"[8]; humans, smokers, nonsmokers, secondhand smoke exposure, current study","• 5-[^123I]IA is safe, efficacious in humans (smokers, nonsmokers, people with secondhand smoke exposure"
same,binding affinity relative to (−)-nicotine,[9],seven times greater
same,binding affinity relative to A-85380,[9],comparable to A-85380
same,regional brain uptake,[10],"high uptake in the thalamus, moderate uptake in the cortex, and low uptake in the cerebellum"
same,Conclusion: safety and efficacy,"[2]; ref Chefer et al., 1998",5-[^123 I]IA is safe and efficacious for brain imaging in monkeys.
same,Conclusion: safety and efficacy,[11],"• 5-[^123I]IA is safe, efficacious in a marmoset."
same,Conclusion: regional uptake,"[1]; baboon, ref Baldwin et al., 2006","• Uptake high in thalamus, moderate in cortex and basal ganglia, low in cerebellum. SPECT brain radioactivity represents5-[^123I]IA distribution"
same,Conclusion: safety and efficacy,"[1]; ref Fujita et al., 2000","5-[^123I]IA is safe, efficacious in baboons."
same,Conclusion: metabolism and plasma protein binding by sex,"[3]; 29 nonsmokers, ref Cosgrove et al., 2007",greater in women than in men
same,Conclusion: safety and efficacy,"[3]; ref Fujita et al., 2002","• 5-[^123I]IA is safe, efficacious in humans."
same,Conclusion: safety and efficacy,"[3]; ref Ishizu et al., 2004","• 5-[^123I]IA is safe, efficacious in humans."
same,Conclusion: safety and efficacy,"[3]; ref Mamede et al., 2004","• 5-[^123I]IA is safe, efficacious in humans."
same,Conclusion: safety and efficacy,"[3]; ref Staley et al., 2005","• 5-[^123I]IA is safe, efficacious in humans."
same,Conclusion: safety and efficacy,"[3]; ref Ueda et al., 2004","• 5-[^123I]IA is safe, efficacious in humans."
CN1CCC[C@H]1c1cccnc1 [(−)-nicotine],effect on accumulation of 5-[^123I]IA in brain,[10],blocked in all brain regions
same,reduction in α4β2* nAChR uptake,[12]; frontal cortex,32%
same,reduction in α4β2* nAChR uptake,[12]; thalamus,52%
same,plasma nicotine level at uptake of half the α4β2* nAChRs,[13],0.87 ng/mL
"[18F]c1cc(-c2cc(OC[C@@H]3CCN3)cnc2Cl)ccn1 [[^18F]NIDA522131, chloro-3-((2-(S)-azetidinyl)methoxy)-5-(2-[^18F]fluoropyridin-4-yl)pyridine]",Conclusion: safety and efficacy,"[2]; ref Chefer et al., 2008",• [^18 F]NIDA522131 is safe and efficacious for brain imaging in monkeys.
